pIC50: −log10 of the molar value.
Target: T1, CD73 (Homo sapiens, UniProt P21589)
T1 sequence (P21589 27-549): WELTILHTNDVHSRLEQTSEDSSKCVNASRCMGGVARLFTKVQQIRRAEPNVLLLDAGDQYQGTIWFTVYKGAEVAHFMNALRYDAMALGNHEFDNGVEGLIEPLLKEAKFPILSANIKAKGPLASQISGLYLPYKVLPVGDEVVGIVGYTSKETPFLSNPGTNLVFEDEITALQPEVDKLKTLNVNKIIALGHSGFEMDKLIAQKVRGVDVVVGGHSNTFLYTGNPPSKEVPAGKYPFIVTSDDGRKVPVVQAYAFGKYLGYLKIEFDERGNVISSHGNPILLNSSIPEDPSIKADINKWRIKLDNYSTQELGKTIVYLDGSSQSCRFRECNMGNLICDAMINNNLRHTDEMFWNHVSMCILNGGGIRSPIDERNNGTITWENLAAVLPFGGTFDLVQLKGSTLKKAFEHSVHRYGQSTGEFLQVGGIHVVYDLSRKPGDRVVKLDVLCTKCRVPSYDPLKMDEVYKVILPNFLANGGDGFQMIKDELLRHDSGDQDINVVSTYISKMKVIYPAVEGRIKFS
Assay: Biochemical assay of CD73 inhibition (Malachite Green)
Conditions: CD73 0.3208 nM, AMP 15 μM, Tris-HCl pH 7.4, Malachite Green absorbance readout; read-out: CD73_Biochem
Experimental: Example A1: Biochemical Assay
Assay Reaction Conditions
• Assay Volume: 70 μl • Reaction Volume: 50 μl • CD73: 0.3208 nM • AMP:15 μM • Assay Buffer: 2 5 mM Tris-HCL, pH 7.4, 0.01% Brij-35, 0.01% BSA, 5 mM MgCl2 Assay Procedure:
Made dose titration of testing compounds in assay buffer, 10 points 1/2 log titrations in duplicates starting at 100 μM.
Added 25 µl of CD73 to each well for a final concentration of […].
Incubated at RT for 15 min.
Added 25 µl of AMP to each well for a final concentration of 15 μM.
Incubated at RT for 10 min.
Added […] of Malachite Green Reagent A, incubate at RT for 10 min.
Added […] of Malachite Green Reagent B, incubate at RT for 45 min.
Read the Absorbance on Envision plate reader using excitation filter: Cy5 […].
The ability of the compounds disclosed herein to inhibit CD73 activity was quantified and the respective IC50 values were determined. Table 2 provides the biochemical IC50 values of compounds disclosed herein.

Compound | pIC50
CC(C)Nc1nc(Cl)nc2c1cnn2[C@@H]1O[C@H](CO[C@](CO)(Cc2nn[nH]n2)P(=O)(O)O)[C@@H](O)[C@H]1O [Example 29, ((R)-2-(((2R,3S,4R,5R)-5-(6-chloro-4-(isopropylamino)-1H-pyrazolo[3,4-d]pyrimidin-1-yl)-3,4-dihydroxytetrahydrofuran-2-yl)methoxy)-1-hydroxy-3-(2H-tetrazol-5-yl)propan-2-yl)phosphonic acid] | ≥ 8.00
C[C@H]1CCC[C@@H]1Nc1nc(Cl)nc2c1cnn2[C@@H]1O[C@H](COC(CO)(CO)P(=O)(O)O)[C@@H](O)[C@H]1O [Example 14, (2-(((2R,3S,4R,5R)-5-(6-chloro-4-(((1S,2S)-2-methylcyclopentyl)amino)-1H-pyrazolo[3,4-d]pyrimidin-1-yl)-3,4-dihydroxytetrahydrofuran-2-yl)methoxy)-1,3-dihydroxypropan-2-yl)phosphonic acid] | ≥ 8.00
COCC(COCc1nn[nH]n1)(OC[C@H]1O[C@@H](n2ncc3c(NC4CCCC4)nc(C#CC4CC4)nc32)[C@H](O)[C@@H]1O)P(=O)(O)O (stereo partly drawn) [Example 53, (1-((2H-tetrazol-5-yl)methoxy)-2-(((2R,3S,4R,5R)-5-(4-(cyclopentylamino)-6-(cyclopropylethynyl)-1H-pyrazolo[3,4-d]pyrimidin-1-yl)-3,4-dihydroxytetrahydrofuran-2-yl)methoxy)-3-methoxypropan-2-yl)phosphonic acid] | ≥ 8.00
O=P(O)(O)C(CO)(CCCc1nn[nH]n1)OC[C@H]1O[C@@H](n2ncc3c(NC4CCCC4)nc(Cl)nc32)[C@H](O)[C@@H]1O (stereo partly drawn) [Example 5, (2-(((2R,3S,4R,5R)-5-(6-chloro-4-(cyclopentylamino)-1H-pyrazolo[3,4-d]pyrimidin-1-yl)-3,4-dihydroxytetrahydrofuran-2-yl)methoxy)-1-hydroxy-5-(2H-tetrazol-5-yl)pentan-2-yl)phosphonic acid] | ≥ 8.00
O=P(O)(O)C(CO)(COCc1nn[nH]n1)OC[C@H]1O[C@@H](n2ncc3c(N[C@@H]4CCc5ccccc54)nc(Cl)nc32)[C@H](O)[C@@H]1O (stereo partly drawn) [Example 60, (1-((2H-tetrazol-5-yl)methoxy)-2-(((2R,3S,4R,5R)-5-(6-chloro-4-(((R)-2,3-dihydro-1H-inden-1-yl)amino)-1H-pyrazolo[3,4-d]pyrimidin-1-yl)-3,4-dihydroxytetrahydrofuran-2-yl)methoxy)-3-hydroxypropan-2-yl)phosphonic acid] | ≥ 8.00
COCC(CCC(=O)O)(OC[C@H]1O[C@@H](n2ncc3c(NC4CCCC4)nc(Cl)nc32)[C@H](O)[C@@H]1O)P(=O)(O)O (stereo partly drawn) [Example 6, 4-(((2R,3S,4R,5R)-5-(6-chloro-4-(cyclopentylamino)-1H-pyrazolo[3,4-d]pyrimidin-1-yl)-3,4-dihydroxytetrahydrofuran-2-yl)methoxy)-5-methoxy-4-phosphonopentanoic acid] | ≥ 8.00
O=P(O)(O)C(COCc1nnn[nH]1)(Cc1nnn[nH]1)OC[C@H]1O[C@@H](n2ncc3c(NC4CCCC4)nc(Cl)nc32)[C@H](O)[C@@H]1O (stereo in doubt) [Example 41, ((S)-1-((1H-tetrazol-5-yl)methoxy)-2-(((2R,3S,4R,5R)-5-(6-chloro-4-(cyclopentylamino)-1H-pyrazolo[3,4-d]pyrimidin-1-yl)-3,4-dihydroxytetrahydrofuran-2-yl)methoxy)-3-(1H-tetrazol-5-yl)propan-2-yl)phosphonic acid] | ≥ 8.00
COCCOCC(COCc1nnn[nH]1)(OC[C@H]1O[C@@H](n2ncc3c(NC4CCCC4)nc(Cl)nc32)[C@H](O)[C@@H]1O)P(=O)(O)O (single isomer, unassigned) [Example 1] | ≥ 8.00
O=P(O)(O)[C@@](CO)(Cc1nn[nH]n1)OC[C@H]1O[C@@H](n2ncc3c(NC4CCCC4)nc(C#CC4CC4)nc32)[C@H](O)[C@@H]1O [Example 50, ((R)-2-(((2R,3S,4R,5R)-5-(4-(cyclopentylamino)-6-(cyclopropylethynyl)-1H-pyrazolo[3,4-d]pyrimidin-1-yl)-3,4-dihydroxytetrahydrofuran-2-yl)methoxy)-1-hydroxy-3-(2H-tetrazol-5-yl)propan-2-yl)phosphonic acid] | ≥ 8.00
COC[C@@](OC[C@H]1O[C@@H](n2ncc3c(NC4CCCC4)nc(Cl)nc32)[C@H](O)[C@@H]1O)(C(=O)NO)P(=O)(O)O [Example 37, ((S)-2-(((2R,3S,4R,5R)-5-(6-chloro-4-(cyclopentylamino)-1H-pyrazolo[3,4-d]pyrimidin-1-yl)-3,4-dihydroxytetrahydrofuran-2-yl)methoxy)-1-(hydroxyamino)-3-methoxy-1-oxopropan-2-yl)phosphonic acid] | ≥ 8.00
COCC(CC(=O)NO)(OC[C@H]1O[C@@H](n2ncc3c(NC4CCCC4)nc(Cl)nc32)[C@H](O)[C@@H]1O)P(=O)(O)O (stereo partly drawn) [Example 11, (2-(((2R,3S,4R,5R)-5-(6-chloro-4-(cyclopentylamino)-1H-pyrazolo[3,4-d]pyrimidin-1-yl)-3,4-dihydroxytetrahydrofuran-2-yl)methoxy)-4-(hydroxyamino)-1-methoxy-4-oxobutan-2-yl)phosphonic acid] | ≥ 8.00
COC[C@](Cc1nn[nH]n1)(OC[C@H]1O[C@@H](n2ncc3c(NC4CCC4)nc(CO)nc32)[C@H](O)[C@@H]1O)P(=O)(O)O [Example 9, ((R)-2-(((2R,3S,4R,5R)-5-(4-(cyclobutylamino)-6-(hydroxymethyl)-1H-pyrazolo[3,4-d]pyrimidin-1-yl)-3,4-dihydroxytetrahydrofuran-2-yl)methoxy)-1-methoxy-3-(2H-tetrazol-5-yl)propan-2-yl)phosphonic acid] | ≥ 8.00
COCCOCC(COCc1nnn[nH]1)(OC[C@H]1O[C@@H](n2ncc3c(NC4CCCC4)nc(Cl)nc32)[C@H](O)[C@@H]1O)P(=O)(O)O (stereo partly drawn) [Example 40, (1-((1H-tetrazol-5-yl)methoxy)-2-(((2R,3S,4R,5R)-5-(6-chloro-4-(cyclopentylamino)-1H-pyrazolo[3,4-d]pyrimidin-1-yl)-3,4-dihydroxytetrahydrofuran-2-yl)methoxy)-3-(2-methoxyethoxy)propan-2-yl)phosphonic acid] | ≥ 8.00
COC[C@@](Cc1nn[nH]n1)(OC[C@H]1O[C@@H](n2ncc3c(NCC(C)C)nc(Cl)nc32)[C@H](O)[C@@H]1O)P(=O)(O)O [Example 34, ((S)-2-(((2R,3S,4R,5R)-5-(6-chloro-4-(isobutylamino)-1H-pyrazolo[3,4-d]pyrimidin-1-yl)-3,4-dihydroxytetrahydrofuran-2-yl)methoxy)-1-methoxy-3-(2H-tetrazol-5-yl)propan-2-yl)phosphonic acid] | 7.00 to 8.00
COCC(OC[C@H]1O[C@@H](n2ncc3c(NC4CCCC4)nc(Cl)nc32)[C@H](O)[C@@H]1O)(C(=O)O)P(=O)(O)O (stereo partly drawn) [Example 46, 2-(((2R,3S,4R,5R)-5-(6-chloro-4-(cyclopentylamino)-1H-pyrazolo[3,4-d]pyrimidin-1-yl)-3,4-dihydroxytetrahydrofuran-2-yl)methoxy)-3-methoxy-2-phosphonopropanoic acid] | ≥ 8.00
COC[C@@](COCc1nn[nH]n1)(OC[C@H]1O[C@@H](n2ncc3c(NC4CCCC4)nc(Cl)nc32)[C@H](O)[C@@H]1O)P(=O)(O)O [Example 39, ((R)-1-((2H-tetrazol-5-yl)methoxy)-2-(((2R,3S,4R,5R)-5-(6-chloro-4-(cyclopentylamino)-1H-pyrazolo[3,4-d]pyrimidin-1-yl)-3,4-dihydroxytetrahydrofuran-2-yl)methoxy)-3-methoxypropan-2-yl)phosphonic acid] | ≥ 8.00
COCC(CC(=O)NS(=O)(=O)N(C)C)(OC[C@H]1O[C@@H](n2ncc3c(NC4CCCC4)nc(Cl)nc32)[C@H](O)[C@@H]1O)P(=O)(O)O (stereo partly drawn) [Example 22, (2-(((2R,3S,4R,5R)-5-(6-chloro-4-(cyclopentylamino)-1H-pyrazolo[3,4-d]pyrimidin-1-yl)-3,4-dihydroxytetrahydrofuran-2-yl)methoxy)-4-((N,N-dimethylsulfamoyl)amino)-1-methoxy-4-oxobutan-2-yl)phosphonic acid] | ≥ 8.00
[2H]C([2H])([2H])OC[C@](COCc1nn[nH]n1)(OC[C@H]1O[C@@H](n2ncc3c(NC4CCCC4)nc(Cl)nc32)[C@H](O)[C@@H]1O)P(=O)(O)O [Example 59, ((S)-1-((2H-tetrazol-5-yl)methoxy)-2-(((2R,3S,4R,5R)-5-(6-chloro-4-(cyclopentylamino)-1H-pyrazolo[3,4-d]pyrimidin-1-yl)-3,4-dihydroxytetrahydrofuran-2-yl)methoxy)-3-(methoxy-d3)propan-2-yl)phosphonic acid] | ≥ 8.00

Source: patent publication US11130778B2, “CD73 inhibitors” (ORIC Pharmaceuticals, Inc., priority 2019, dated 2021)
